Test results taken from patent publication US20160009693A1, “HERBICIDAL COMPOUNDS” (SYNGENTA LIMITED, priority 2013, published 2016).

Tests used:
Assay type in all cases: in vivo
Details in all cases: applied at 1000 g/h, evaluated after 13 days
[1] = test system: Ipomoea hederacea (IPOHE); experiment: Herbicidal glasshouse test, post-emergence, IPOHE
Procedure: (§1) Seeds of a variety of test species are sown in standard soil in pots (Alopecurus myosuroides (ALOMY), Setaria faberi (SETFA), Echinochloa crus-galli (ECHCG), Solanum nigrum (SOLNI), Amaranthus retoflexus (AMARE), Ipomoea hederacea (IPOHE)). After cultivation for one day (pre-emergence) or after 8 days cultivation (post-emergence) under controlled conditions in a glasshouse (at 24/16° C., day/night; 14 hours light; 65% humidity), the plants are sprayed with an aqueous spray solution derived from the formulation of the technical active ingredient in acetone / water (50:50) solution containing 0.5% Tween 20 (polyoxyethelyene sorbitan monolaurate, CAS RN 9005-64-5). […] The test plants are then grown in a glasshouse under controlled conditions in a glasshouse (at 24/16° C., day/night; 14 hours light; 65% humidity) and watered twice daily. After 13 days for pre and post-emergence, the test is evaluated for the percentage damage caused to the plant. The biological activities are shown in the following table on a five point scale (5=80-100%; 4=60-79%; 3=40-59%; 2=20-39%; 1=0-19%).

[2] = test system: Amaranthus retoflexus (AMARE); experiment: Herbicidal glasshouse test, post-emergence, AMARE
Procedure: as §1

[3] = test system: Ipomoea hederacea (IPOHE); experiment: Herbicidal glasshouse test, pre-emergence, IPOHE
Procedure: as §1

[4] = test system: Setaria faberi (SETFA); experiment: Herbicidal glasshouse test, pre-emergence, SETFA
Procedure: as §1

[5] = test system: Setaria faberi (SETFA); experiment: Herbicidal glasshouse test, post-emergence, SETFA
Procedure: as §1

[6] = test system: Solanum nigrum (SOLNI); experiment: Herbicidal glasshouse test, pre-emergence, SOLNI
Procedure: as §1

[7] = test system: Alopecurus myosuroides (ALOMY); experiment: Herbicidal glasshouse test, post-emergence, ALOMY
Procedure: as §1

[8] = test system: Solanum nigrum (SOLNI); experiment: Herbicidal glasshouse test, post-emergence, SOLNI
Procedure: as §1

[9] = test system: Echinochloa crus-galli (ECHCG); experiment: Herbicidal glasshouse test, post-emergence, ECHCG
Procedure: as §1

[10] = test system: Amaranthus retoflexus (AMARE); experiment: Herbicidal glasshouse test, pre-emergence, AMARE
Procedure: as §1

[11] = test system: Echinochloa crus-galli (ECHCG); experiment: Herbicidal glasshouse test, pre-emergence, ECHCG
Procedure: as §1

[12] = test system: Alopecurus myosuroides (ALOMY); experiment: Herbicidal glasshouse test, pre-emergence, ALOMY
Procedure: as §1

Compound | POST Application IPOHE, percentage damage (five point scale) [1] | POST Application AMARE, percentage damage (five point scale) [2] | PRE Application IPOHE, percentage damage (five point scale) [3] | PRE Application SETFA, percentage damage (five point scale) [4] | POST Application SETFA, percentage damage (five point scale) [5] | PRE Application SOLNI, percentage damage (five point scale) [6] | POST Application ALOMY, percentage damage (five point scale) [7] | POST Application SOLNI, percentage damage (five point scale) [8] | POST Application ECHCG, percentage damage (five point scale) [9] | PRE Application AMARE, percentage damage (five point scale) [10] | PRE Application ECHCG, percentage damage (five point scale) [11] | PRE Application ALOMY, percentage damage (five point scale) [12]
Cn1nnnc1NC(=O)c1nn(C)c(=O)n(-c2ccc(F)cc2Cl)c1=O [Compound 1.021] | 5 (5=80-100%) | 5 (5=80-100%) | 5 (5=80-100%) | 5 (5=80-100%) | 5 (5=80-100%) | 5 (5=80-100%) | 5 (5=80-100%) | 5 (5=80-100%) | 5 (5=80-100%) | 5 (5=80-100%) | 5 (5=80-100%) | 5 (5=80-100%)
Cn1nnnc1NC(=O)c1nn(C)c(=O)n(Cc2ccccc2)c1=O [Compound 1.022] | 5 (5=80-100%) | 5 (5=80-100%) | 4 (4=60-79%) | 3 (3=40-59%) | 4 (4=60-79%) | 5 (5=80-100%) | 4 (4=60-79%) | 5 (5=80-100%) | 5 (5=80-100%) | 5 (5=80-100%) | 5 (5=80-100%) | 5 (5=80-100%)
COCCOc1ccc(-n2c(=O)c(C(=O)Nc3nnnn3C)nn(C)c2=O)cc1 [Compound 1.023] | 5 (5=80-100%) | 5 (5=80-100%) | 5 (5=80-100%) | 5 (5=80-100%) | 5 (5=80-100%) | 5 (5=80-100%) | 5 (5=80-100%) | 5 (5=80-100%) | 5 (5=80-100%) | 5 (5=80-100%) | 5 (5=80-100%) | 5 (5=80-100%)
Cn1nnnc1NC(=O)c1nn(C)c(=O)n(-c2ccc(Cl)cc2)c1=O [Compound 1.024] | 5 (5=80-100%) | 5 (5=80-100%) | 5 (5=80-100%) | 5 (5=80-100%) | 5 (5=80-100%) | 5 (5=80-100%) | 5 (5=80-100%) | 5 (5=80-100%) | 5 (5=80-100%) | 5 (5=80-100%) | 5 (5=80-100%) | 5 (5=80-100%)
Cc1cccc(-n2c(=O)c(C(=O)Nc3nnnn3C)nn(C)c2=O)c1 [Compound 1.025] | 5 (5=80-100%) | 5 (5=80-100%) | 5 (5=80-100%) | 5 (5=80-100%) | 5 (5=80-100%) | 5 (5=80-100%) | 5 (5=80-100%) | 5 (5=80-100%) | 5 (5=80-100%) | 5 (5=80-100%) | 5 (5=80-100%) | 5 (5=80-100%)
Cc1ccc(-n2c(=O)c(C(=O)Nc3nnnn3C)nn(C)c2=O)cc1C [Compound 1.026] | 5 (5=80-100%) | 5 (5=80-100%) | 5 (5=80-100%) | 5 (5=80-100%) | 5 (5=80-100%) | 5 (5=80-100%) | 5 (5=80-100%) | 5 (5=80-100%) | 5 (5=80-100%) | 5 (5=80-100%) | 5 (5=80-100%) | 5 (5=80-100%)
Cn1nnnc1NC(=O)c1nn(C)c(=O)n(-c2ccc(Br)cc2)c1=O [Compound 1.027] | 5 (5=80-100%) | 5 (5=80-100%) | 5 (5=80-100%) | 5 (5=80-100%) | 5 (5=80-100%) | 5 (5=80-100%) | 5 (5=80-100%) | 5 (5=80-100%) | 5 (5=80-100%) | 5 (5=80-100%) | 5 (5=80-100%) | 5 (5=80-100%)
Cn1nnnc1NC(=O)c1nn(C)c(=O)n(-c2cccc(C(F)(F)F)c2)c1=O [Compound 1.028] | 5 (5=80-100%) | 5 (5=80-100%) | 5 (5=80-100%) | 5 (5=80-100%) | 5 (5=80-100%) | 5 (5=80-100%) | 5 (5=80-100%) | 5 (5=80-100%) | 5 (5=80-100%) | 5 (5=80-100%) | 5 (5=80-100%) | 5 (5=80-100%)
Cn1nnnc1NC(=O)c1nn(C)c(=O)n(-c2ccc(OC(F)(F)F)c(F)c2)c1=O [Compound 1.029] | 5 (5=80-100%) | 5 (5=80-100%) | 5 (5=80-100%) | 5 (5=80-100%) | 5 (5=80-100%) | 5 (5=80-100%) | 5 (5=80-100%) | 5 (5=80-100%) | 5 (5=80-100%) | 5 (5=80-100%) | 5 (5=80-100%) | 5 (5=80-100%)
Cn1nnnc1NC(=O)c1nn(C)c(=O)n(-c2ccc([N+](=O)[O-])cc2)c1=O [Compound 1.031] | 2 (2=20-39%) | 5 (5=80-100%) | 4 (4=60-79%) | 4 (4=60-79%) | 5 (5=80-100%) | 5 (5=80-100%) | 4 (4=60-79%) | 5 (5=80-100%) | 5 (5=80-100%) | 5 (5=80-100%) | 4 (4=60-79%) | 3 (3=40-59%)
